Where two headings read alike, the source gives them in different places. Marks after values point to notes of the source that are not given here.
What was measured:
[1] = test system: 1X-Ab; test: Competitive antigen ELISA, cross-reactivity of 1X-Ab; type: binding, rabbit; conditions: for % Cross-Reaction 1X-Ab: competitive antigen ELISA, 0 = absence of inhibition or inhibition no higher than 40% at highest concentration tested (5×10^−3 M)
Procedure: (§1) Buffers and water without additives are filtered through millipore filters and kept for 1 week. BSA, antibodies, Tween™ 20 and horse radish peroxidase conjugates are added to these buffers and water just prior to use. Urine samples are usually collected 4 hours after drinking a cup of coffee (instant or brewed with approximately 100 mg of caffeine per cup) and stored at −80° C. The urine samples are diluted 10 times with sodium phosphate buffer (620 mosm, pH 7.50) and are subsequently diluted with water to give concentrations of AAMU and 1X no higher than 3×10^−6 M in the ELISA. All the pipettings are done with an eight-channel pipette, except those of the antibody and sample solutions. Starting with the last well, 100 μL of a carbonate buffer (100 mM, pH 9.6) containing 2.5 μg mL-1 antibodies are added to each well. After 90 min. at room temperature, the wells are washed three times with […] of TPB: isotonic sodium phosphate buffer (310 mosm, pH 7.50) containing 0.05% Tween™ 20.
(§2) After the initial wash, unoccupied sites are blocked by incubation for 90 min. at room temperature with 100 μL TBP containing 3% BSA. The wells are washed four times with 100 μL TPB. […] The microplate is gently shaken with an orbital shaker at room temperature for 3-4 hours. The wells are washed three times with 100 μL TPB containing 1% BSA and three times with water containing 0.05% Tween™ 20. To the washed plate is added 150 μL of a substrate buffer composed of citric acid (25 mM) and sodium phosphate dibasic buffer (50 mM, pH 5.0) containing 0.06% hydrogen peroxide and 0.04% o-phenylenediamine hydrochloride.
(§3) Buffers and water without additives were filtered through millipore filters and kept for 1 week. BSA, antibodies, Tween™ 20 and horse radish peroxidase conjugates were added to these buffers and water just prior to use. Urine samples were usually collected 4 hours after drinking a cup of coffee (instant or brewed with approximately 100 mg of caffeine per cup) and stored at −80° C. They were diluted 10 times with sodium phosphate buffer (620 mosm, pH 7.50) and were subsequently diluted with water to give concentrations of AAMU and 1X no higher than 3×10^−6 M in the ELISA. All the pipettings were done with an eight-channel pipette, except those of the antibody and sample solutions. Starting with the last well, 100 μL of a carbonate buffer (100 mM, pH 9.6) containing 2.5 μg mL-1 antibodies was pipetted. After 90 min. at room temperature, the wells were washed three times with 100 μL of TPB: isotonic sodium phosphate buffer (310 mosm, pH 7.50) containing 0.05% Tween™ 20.
(§4) After the initial wash, unoccupied sites were blocked by incubation for 90 min. at room temperature with 100 μL TBP containing 3% BSA. The wells were washed four times with 100 μL TPB. […] The microplate was gently shaken with an orbital shaker at room temperature for 3-4 hours. The wells were washed three times with 100 μL with TPB containing 1% BSA and three times with water containing 0.05% Tween™ 20. To the washed plate was added 150 μL of a substrate buffer composed of citric acid (25 mM) and sodium phosphate dibasic buffer (50 mM, pH 5.0) containing 0.06% hydrogen peroxide and 0.04% o-phenylenediamine hydrochloride. After 20 min. at room temperature with shaking, the reaction was stopped with 50 μL of 2.5 N HCl.
(§5) The cross reactivities of AAMU-Ab and 1X-Ab were tested using a wide variety of caffeine metabolites and structural analogs (Table 5 below).

[2] = test system: AAMU-Ab; test: Competitive antigen ELISA, cross-reactivity of AAMU-Ab; type: binding, rabbit; conditions: for % Cross-Reaction AAMU-Ab: competitive antigen ELISA, 0 = absence of inhibition or inhibition no higher than 40% at highest concentration tested (5×10^−3 M)
Procedure: as §1, §2, §3, §4, §5

[3] = cited from earlier work

Structure (SMILES)	% Cross-Reaction 1X-Ab [1] [%]	% Cross-Reaction AAMU-Ab [2]	IC50 ([1]; read-out: concentration required for 50% inhibition in the competitive antigen ELISA, 1X-Ab) [µM]	IC50 ([2]; read-out: concentration required for 50% inhibition in the competitive antigen ELISA, AAMU-Ab) [µM]	adverse reactions to dapsone ([3]; fast acetylators) [%]	adverse reactions to dapsone ([3]; slow acetylators) [%]
Cn1c(=O)c2c(ncn2C)n(C)c1=O [1,3,7-Trimethyl Xanthine (Caffeine), 1,3,7-Trimethyl Xanthine]	0	0%	–	–	–	–
Cn1c(=O)c2[nH]cnc2n(C)c1=O [1,3-Dimethyl Xanthine (Theophylline), 1,3-Dimethyl Xanthine]	0.2	0%	–	–	–	–
Cn1c(=O)[nH]c2ncn(C)c2c1=O [1,7-Dimethyl Xanthine (Paraxanthine), 1,7-Dimethyl Xanthine]	0.5	0%	–	–	–	–
Cn1c(=O)[nH]c2[nH]c(=O)n(C)c2c1=O [1,7-Dimethyluric acid]	0	0%	–	–	–	–
Cn1c(=O)[nH]c2nc[nH]c2c1=O [1-Methyl Xanthine (1X), 1-Methyl Xanthine]	100	0%	10	–	–	–
Cn1c(=O)[nH]c2[nH]c(=O)[nH]c2c1=O [1-Methyluric acid]	11	0%	–	–	–	–
Cn1cnc2c1c(=O)[nH]c(=O)n2C [3,7-Dimethyl Xanthine (Theobromine), 3,7-Dimethyl Xanthine]	0	0%	–	–	–	–
Cn1c(=O)[nH]c(=O)c2[nH]cnc21 [3-Methyl Xanthine]	0	0%	–	–	–	–
CC(=O)Nc1c(N)n(C)c(=O)n(C)c1=O [5-Acetamino-6-amino-1,3-dimethyluracil]	0	0%	–	–	–	–
CC(=O)Nc1c(N)n(C)c(=O)[nH]c1=O [5-Acetamino-6-amino-1-methyluracil]	0	100%	–	1.5	–	–
CC(=O)Nc1c(N)[nH]c(=O)[nH]c1=O [5-Acetamino-6-amino-uracil]	0	0.6%	–	–	–	–
Cn1cnc2[nH]c(=O)[nH]c(=O)c21 [7-Methyl Xanthine]	0	0%	–	–	–	–
Cc1nc2[nH]c(=O)[nH]c(=O)c2[nH]1 [8-Methyl Xanthine]	0	0%	–	–	–	–
Nc1nc2nc[nH]c2c(=O)[nH]1 [Guanine]	0	0%	–	–	–	–
O=c1[nH]cnc2nc[nH]c12 [Hypoxanthine]	0	0%	–	–	–	–
O=c1cc[nH]c(=O)[nH]1 [Uracil]	0	0%	–	–	–	–
O=c1[nH]c(=O)c2[nH]c(=O)[nH]c2[nH]1 [Uric acid]	0	0%	–	–	–	–
O=c1[nH]c(=O)c2[nH]cnc2[nH]1 [Xanthine]	0	0^a %	–	–	–	–
Nc1ccc(S(=O)(=O)c2ccc(N)cc2)cc1 [dapsone]	–	–	–	–	17	46
